Results on two compounds are retold here after article PMC8327648 (Acta Pharmaceutica Sinica. B, 2021).

Molecules are shown by their SMILES.

As a reminder, the IC50 is the concentration that gives 50% inhibition. High values mean lower potency, low ones higher potency.

One data set concerns SARS-CoV-2 PsV. The conditions noted are these: 12 h.
The test system of data set [1] is SARS-CoV-2 S protein-mediated cell–cell fusion. The conditions noted are these: 2 h.
In the next data set the test system is trypsin. The conditions noted are these: n = 3.
A further data set deals with proteinase K (Parengyodontium album, UniProt P06873). The conditions noted are these: n = 3.
Another data set relates to pseudotyped HCoV-NL63. As to conditions: 12 h.
Another data set has as its system authentic SARS-CoV-2. The conditions noted are these: 48 h.
The subject of another data set is authentic HCoV-OC43. As to conditions: 36 h.

Sequence of proteinase K (P06873 106-384): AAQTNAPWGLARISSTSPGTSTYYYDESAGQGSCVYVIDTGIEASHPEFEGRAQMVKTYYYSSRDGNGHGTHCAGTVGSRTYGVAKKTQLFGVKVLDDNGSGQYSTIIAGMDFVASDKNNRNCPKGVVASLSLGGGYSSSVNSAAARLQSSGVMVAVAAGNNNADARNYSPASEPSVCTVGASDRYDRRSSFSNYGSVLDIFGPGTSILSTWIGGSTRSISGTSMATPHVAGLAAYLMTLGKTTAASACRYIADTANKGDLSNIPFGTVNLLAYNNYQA

Take `CC[C@H](C)[C@H](NC(=O)[C@H](C)NC(=O)[C@H](CCC(=O)O)NC(=O)[C@H](CCC(=O)O)NC(=O)[C@H](CC(C)C)NC(=O)[C@H](CCCCN)NC(=O)[C@H](CCCCN)NC(=O)[C@H](CCSC)NC(=O)[C@H](CCC(=O)O)NC(=O)[C@H](Cc1ccc(O)cc1)NC(=O)[C@H](CCC(=O)O)NC(=O)[C@H](CC(C)C)NC(=O)[C@H](CC(=O)O)NC(=O)[C@H](CC(C)C)NC(=O)[C@H](Cc1ccccc1)NC(=O)[C@@H](NC(=O)[C@@H](NC(=O)[C@H](CC(N)=O)NC(=O)[C@@H](NC(=O)[C@H](CCC(N)=O)NC(=O)[C@H](CC(=O)O)NC(=O)[C@H](CC(C)C)NC(=O)[C@@H](N)CO)[C@@H](C)CC)C(C)C)[C@@H](C)O)C(=O)N[C@@H](CCCCN)C(=O)N[C@@H](CCCCN)C(=O)N[C@@H](CC(C)C)C(=O)N[C@@H](CCC(=O)O)C(=O)N[C@@H](CCC(=O)O)C(=O)N[C@@H](CO)C(=O)N[C@@H](Cc1ccc(O)cc1)C(=O)N[C@H](C(=O)N[C@@H](CC(=O)O)C(=O)N[C@@H](CC(C)C)C(=O)N[C@@H](CCCCN)C(=O)N[C@@H](CCC(=O)O)C(=O)N[C@@H](CC(C)C)C(=O)NCC(=O)N[C@@H](CO)C(=O)NCC(=O)N[C@@H](CO)C(=O)NCC(=O)NCCOCCOCCOCCOCCC(=O)N[C@@H](CSCC(=O)O[C@H]1CC[C@@]2(C)C(=CC[C@H]3[C@@H]4CC[C@H]([C@H](C)CCCC(C)C)[C@@]4(C)CC[C@@H]32)C1)C(N)=O)[C@@H](C)CC` [EK1C4]: the IC50 in the data set with SARS-CoV-2 PsV was 7 to 27 nM; in data set [1], 3 nM. In the data set on trypsin, the “sensitivity to trypsin (residual inhibitory activity over time)” value is listed as “gradually decreased more significantly”. For the same compound, at proteinase K, the “sensitivity to proteinase K (residual inhibitory activity over time)” value is “gradually decreased more significantly”.

Turning to `CC[C@H](C)[C@H](NC(=O)[C@H](C)NC(=O)[C@H](CCC(=O)O)NC(=O)[C@H](CCC(=O)O)NC(=O)[C@H](CC(C)C)NC(=O)[C@H](CCCCN)NC(=O)[C@H](CCCCN)NC(=O)[C@H](CCSC)NC(=O)[C@H](CCC(=O)O)NC(=O)[C@H](Cc1ccc(O)cc1)NC(=O)[C@H](CCC(=O)O)NC(=O)[C@H](CC(C)C)NC(=O)[C@H](CC(=O)O)NC(=O)[C@H](CC(C)C)NC(=O)[C@H](Cc1ccccc1)NC(=O)[C@@H](NC(=O)[C@@H](NC(=O)[C@H](CC(N)=O)NC(=O)[C@@H](NC(=O)[C@H](CCC(N)=O)NC(=O)[C@H](CC(=O)O)NC(=O)[C@H](CC(C)C)NC(=O)[C@@H](N)CO)[C@@H](C)CC)C(C)C)[C@@H](C)O)C(=O)N[C@@H](CCCCN)C(=O)N[C@@H](CCCCN)C(=O)N[C@@H](CC(C)C)C(=O)N[C@@H](CCC(=O)O)C(=O)N[C@@H](CCC(=O)O)C(=O)N[C@@H](CO)C(=O)N[C@@H](Cc1ccc(O)cc1)C(=O)N[C@H](C(=O)N[C@@H](CC(=O)O)C(=O)N[C@@H](CC(C)C)C(=O)N[C@@H](CCCCN)C(=O)N[C@@H](CCC(=O)O)C(=O)N[C@@H](CC(C)C)C(N)=O)[C@@H](C)CC` [EK1], the IC50 in data set [1] was found to be 320 nM; in the data set with pseudotyped HCoV-NL63, 1340 nM; with authentic SARS-CoV-2 it was 71 nM; in the data set on authentic HCoV-OC43 it was 2430 nM.
